# According to US8614341B2, “Amorphous silibinin for the treatment of viral hepatitis” (Euromed S.A., priority 2009, dated 2013):
# Tests used:
# [1] = Storage stability of the amorphous state (XRPD assessment); format: physicochemical; conditions: single polyethylene bag, 2 months
# Experimental: For quantitative XRPD assessment ZnO (XRPD spectrum FIG. 3A) was used as internal standard. Three characteristics peaks of crystalline sylibinin (2-theta: 20.7, 22.3 and 24.5°) were chosen for the quantitative determination of the crystalline form and peaks at 2-theta: 56.6 and 62.8° of the internal standard (IS, ZnO) were used as reference as reported in FIG. 3B.
# XRPD spectra were obtained using X'Pert diffractometer from PANalytical, using the following parameters for acquisition and data processing:
# Silibinin samples obtained according to the present invention were stored at 4±2° C. at 60% R.H., 25±2° C. at 60±5% R.H. and 40±2° C. at 60±5% R.H., in a single polyethylene bag for 2 months. After this time the samples were analyzed by XRPD.
# [2] = Solubility (HPLC - Ph. Eur. 01/2007:2071) after 30 min; format: physicochemical
# Experimental: A “silibinin release rate of 80% or greater” means that the amorphous silibinin is at least 80% soluble in aqueous solution (standard according to Ph. Eur.).
# Several lots of silibinin manufactured according to the method of the invention, including steps L and M, were analyzed using the XRPD method described in example 2.
# Solubility of this product (HPLC—Ph. Eur. 01/2007:2071) after 30 min. is higher than 80%. Conversely the silibinin obtained according to the method of the invention without performing steps L and M, though of high chemical purity is mainly crystalline (typically more than 70% crystalline).
# Solubility of this product (HPLC—Ph. Eur. 01/2007:2071) after 30 min. is lower than 80%.
stability of amorphous state (XRPD) ([1]; 25±2° C. at 60±5% R.H.),Solubility (HPLC - Ph. Eur. 01/2007:2071) [2],stability of amorphous state (XRPD) ([1]; 4±2° C. at 60% R.H.),stability of amorphous state (XRPD) ([1]; 40±2° C. at 60±5% R.H.),Structure (SMILES)
extended crystallization,–,–,–,"COc1cc(C2Oc3cc(C4Oc5cc(O)cc(O)c5C(=O)C4O)ccc3OC2CO)ccc1O (stereo not drawn) [amorphous silibinin samples, containing about 10% of crystal] [reference compound]"
stable,higher than 80%,stable,stable,"COc1cc(C2Oc3cc(C4Oc5cc(O)cc(O)c5C(=O)C4O)ccc3OC2CO)ccc1O (stereo not drawn) [amorphous silibinin, silibinin]"
–,lower than 80%,–,–,COc1cc(C2Oc3cc(C4Oc5cc(O)cc(O)c5C(=O)C4O)ccc3OC2CO)ccc1O (stereo not drawn) [silibinin obtained without performing steps L and M] [reference compound]
